In patent publication US10806694B2, “Nanoparticles for photodynamic therapy, X-ray induced photodynamic therapy, radiotherapy, radiodynamic therapy, chemotherapy, immunotherapy, and any combination thereof” (The University of Chicago, priority 2014, dated 2020) one finds excited state lifetime, weighted fluorescence lifetime and PDT efficacy data, which are given here for two compounds.

The nature of data set [1]: Fluorescence lifetime by Time-Correlated Single Photon Counting; fluorescence intensity. The format is physicochemical. As for the experimental part:
The fluorescence spectra of H2DBP ligand and DBP-UiO NMOF were taken on a spectrofluorophotometer (RF-5301PC, Shimadzu Corporation, Kyoto, Japan).
Time-domain lifetimes were measured on a ChronosBH lifetime fluorimeter (ISS, Inc., Champaign, Ill., United States of America) using Time-Correlated Single Photon Counting (TCSPC) methods. The fluorimeter contained Becker-Hickl SPC-130 detection electronics and an HPM-100-40 Hybrid PMT detector. Tunable picosecond pulsed excitation was provided by a Fianium SC400-2 supercontiuum laser source with integrated pulse picker and AOTF. Emission wavelengths were selected with bandpass filters (Semrock and Chroma). The Instrument Response Function (IRF) was measured to be approximately 120 ps FWHM in a 1% scattering solution of Ludox LS colloidal silica. Lifetimes were fit via a forward convolution method in the Vinci control and analysis software.
Fluorescence spectra of suspensions of Hf-MOF (0.04 mM of L ligand) in water, DMF, and THF were taken with an excitation wavelength of 368.8 nm. […] Fluorescence lifetimes of Hf-MOF, Zr-MOF, and H2L suspensions in water were also examined.

In another data set the test system is HT29 cells. Particulars: 8.5 μM dose, 100 J/cm^2 light dose; cited from earlier work.

As for `O=C(O)c1ccc(-c2c3ccccc3c(-c3ccc(C(=O)O)cc3)c3ccccc23)cc1` [H2L, 9,10-anthacenyl bis(benzoic acid)], in data set [1] (DMF solution or suspension), the excited state lifetime is 5.34 ns. The same compound came in with a weighted fluorescence lifetime in data set [1] (suspensions in water) of 2.0 ns.
Turning to PHOTOFRIN®, in the data set on HT29 cells, the PDT efficacy entry is reported as “modest PDT efficacy”.
